Earlier results as cited in patent publication US20100119624A1, “BENZISOXAZOLE MODULATORS OF D2 RECEPTOR AND/OR 5-HT2A RECEPTOR” (AUSPEX PHARMACEUTICALS, INC., priority 2008, published 2010).

Tests used:
[1] = coadministration of nafzodone, a competitive CYP3A inhibitor
[2] = in vivo
[3] = test system: prolactin; details: in vivo

Row | SMILES | decrease in risperidone clearance [1] | half-life [2] | levels of prolactin [3]
1 | Cc1nc2n(c(=O)c1CCN1CCC(c3noc4cc(F)ccc34)CC1)CCCC2 [Risperidone, 4-[2-[4-(6-fluorobenzo[d]isoxazol-3-yl)-1-piperidyl]ethyl]-3-methyl-2,6-diazabicyclo[4.4.0]deca-1,3-dien-5-one] | ~50% | about 2 hours | 
2 | Cc1nc2n(c(=O)c1CCN1CCC(c3noc4cc(F)ccc34)CC1)CCCC2O (stereo not drawn) [9-Hydroxyrisperidone] |  |  | elevation in the levels of prolactin
